Measured values as given in US20250051277A1, “DELIVERY OF THERAPEUTIC ALKALOID COMPOUNDS” (Sensorium Therapeutics, Inc., priority 2021, published 2025).
Like-named read-outs stand apart in the source and are kept apart here.

Experiments:
[1] = 10 μM
Description: 50 μL aliquots of positive controls and test compounds spiked into rat or human plasma (n=2) were added to a pre-warmed plate (37° C.) and shaken at 50 rpm. At each respective time point, the reaction was stopped by adding 500 μL of acetonitrile containing internal standards (100 nM aprozolam, 200 nM caffeine, 100 nM tolbutamide). All samples were vortexed for 10 minutes, followed by centrifugation at 3,220 g for 30 minutes to precipitate proteins. 100 μL of the supernatant is transferred to a new plate. The supernatant will be diluted with ultrapure water according to the LC-MS signal response and peak shape.

[2] = 10 μM; remark: listed apart in the source
[3] = format: physicochemical; settings: SGF with pepsin, pH 1.5, 37° C., 0.5 mM
[4] = format: physicochemical; settings: DI water, 25° C., 0.5 mM

COc1ccc([C@@]23CCC(OC(=O)c4c(C)cc(C)cc4C)=C[C@@H]2N(C)CC3)cc1OC [Compound 356, (3aS,7aS)-3a-(3,4-dimethoxyphenyl)-1-methyl-2,3,3a,4,5,7a-hexahydro-1H-indol-6-yl2,4,6-trimethylbenzoate]
Prodrug (%) remaining, Rat Plasma ([1]; 0 h): 100.0% | Prodrug (%) remaining, Rat Plasma ([1]; 10 min): >99% | Prodrug (%) remaining, Rat Plasma ([1]; 0.5 h): >99% | Prodrug (%) remaining, Rat Plasma ([1]; 1 h): >99% | Prodrug (%) remaining, Rat Plasma ([1]; 2 h): >99% | Prodrug (%) remaining, Rat Plasma ([1]; 4 h): 95.8% | Prodrug (%) remaining, Human Plasma ([2]; 0 h): 100.0% | Prodrug (%) remaining, Human Plasma ([2]; 10 min): >99% | Prodrug (%) remaining, Human Plasma ([2]; 0.5 h): >99% | Prodrug (%) remaining, Human Plasma ([2]; 1 h): >99% | Prodrug (%) remaining, Human Plasma ([2]; 2 h): >99% | Prodrug (%) remaining, Human Plasma ([2]; 4 h): >99%

COc1ccc([C@@]23CCC(=NNCc4ccccn4)C[C@@H]2N(C)CC3)cc1OC [Compound 369, (3aS,7aS)-3a-(3,4-dimethoxyphenyl)-1-methyl-6-(2-(pyridin-2-ylmethyl)hydrazineylidene)octahydro-1H-indole]
Condition 1 Conversion (%) ([3]; time 1 min): 30% | Condition 1 Conversion (%) ([3]; time 5 min): 100% | Condition 1 Conversion (%) ([3]; time 30 min): 100% | Condition 1 Conversion (%) ([3]; time 1 h): 100% | Condition 1 Conversion (%) ([3]; time 4 h): 100% | Condition 1 Conversion (%) ([3]; time 24 h): 100% | Condition 2 Conversion (%) ([4]; time 1 min): 0% | Condition 2 Conversion (%) ([4]; time 5 min): 0% | Condition 2 Conversion (%) ([4]; time 30 min): 0% | Condition 2 Conversion (%) ([4]; time 1 h): 0% | Condition 2 Conversion (%) ([4]; time 4 h): 45% | Condition 2 Conversion (%) ([4]; time 24 h): 50%

COc1ccc([C@@]23CCC(=NNCc4cccnc4)C[C@@H]2N(C)CC3)cc1OC [Compound 370, N-[[(3aS,7aS)-3a-(3,4-dimethoxyphenyl)-1-methyl-2,3,4,5,7,7a-hexahydroindol-6-ylidene]amino]-1-(3-pyridyl)methanamine]
Condition 1 Conversion (%) ([3]; time 1 min): 20% | Condition 1 Conversion (%) ([3]; time 5 min): 40% | Condition 1 Conversion (%) ([3]; time 30 min): 100% | Condition 1 Conversion (%) ([3]; time 1 h): 100% | Condition 1 Conversion (%) ([3]; time 4 h): 100% | Condition 1 Conversion (%) ([3]; time 24 h): 100% | Condition 2 Conversion (%) ([4]; time 1 min): 0% | Condition 2 Conversion (%) ([4]; time 5 min): 0% | Condition 2 Conversion (%) ([4]; time 30 min): 0% | Condition 2 Conversion (%) ([4]; time 1 h): 10% | Condition 2 Conversion (%) ([4]; time 4 h): 30% | Condition 2 Conversion (%) ([4]; time 24 h): 70%

CCCCCCCC(=O)OC1=C[C@@H]2N(C)CC[C@]2(c2ccc(OC)c(OC)c2)CC1 [Compound 395, (3aS,7aS)-3a-(3,4-dimethoxyphenyl)-1-methyl-2,3,3a,4,5,7a-hexahydro-1H-indol-6-yl octanoate]
Prodrug (%) remaining, Rat Plasma ([1]; 0 h): 100.0% | Prodrug (%) remaining, Rat Plasma ([1]; 10 min): 0.3% | Prodrug (%) remaining, Rat Plasma ([1]; 0.5 h): 0.1% | Prodrug (%) remaining, Rat Plasma ([1]; 1 h): 0.1% | Prodrug (%) remaining, Rat Plasma ([1]; 2 h): 0.1% | Prodrug (%) remaining, Rat Plasma ([1]; 4 h): 0.1% | Prodrug (%) remaining, Human Plasma ([2]; 0 h): 100.0% | Prodrug (%) remaining, Human Plasma ([2]; 10 min): 13.9% | Prodrug (%) remaining, Human Plasma ([2]; 0.5 h): 3.5% | Prodrug (%) remaining, Human Plasma ([2]; 1 h): 1.1% | Prodrug (%) remaining, Human Plasma ([2]; 2 h): 0.3% | Prodrug (%) remaining, Human Plasma ([2]; 4 h): 0.1%

COc1ccc([C@@]23CCC(OC(=O)CCN)=C[C@@H]2N(C)CC3)cc1OC [Compound 397, (3aS,7aS)-3a-(3,4-dimethoxyphenyl)-1-methyl-2,3,3a,4,5,7a-hexahydro-1H-indol-6-yl3-aminopropanoate]
Prodrug (%) remaining, Rat Plasma ([1]; 0 h): 100.0% | Prodrug (%) remaining, Rat Plasma ([1]; 10 min): 10.5% | Prodrug (%) remaining, Rat Plasma ([1]; 0.5 h): 0.5% | Prodrug (%) remaining, Rat Plasma ([1]; 1 h): 0.1% | Prodrug (%) remaining, Rat Plasma ([1]; 2 h): 0.1% | Prodrug (%) remaining, Rat Plasma ([1]; 4 h): 0.1% | Prodrug (%) remaining, Human Plasma ([2]; 0 h): 100.0% | Prodrug (%) remaining, Human Plasma ([2]; 10 min): 2.2% | Prodrug (%) remaining, Human Plasma ([2]; 0.5 h): 0.5% | Prodrug (%) remaining, Human Plasma ([2]; 1 h): 0.1% | Prodrug (%) remaining, Human Plasma ([2]; 2 h): 0.2% | Prodrug (%) remaining, Human Plasma ([2]; 4 h): 0.0%

CCCC(CC)CC(=O)OC1=C[C@@H]2N(C)CC[C@]2(c2ccc(OC)c(OC)c2)CC1 (stereo partly drawn) [Compound 398, (3aS,7aS)-3a-(3,4-dimethoxyphenyl)-1-methyl-2,3,3a,4,5,7a-hexahydro-1H-indol-6-yl3-ethylhexanoate]
Prodrug (%) remaining, Rat Plasma ([1]; 0 h): 100.0% | Prodrug (%) remaining, Rat Plasma ([1]; 10 min): 2.8% | Prodrug (%) remaining, Rat Plasma ([1]; 0.5 h): 0.7% | Prodrug (%) remaining, Rat Plasma ([1]; 1 h): 0.1% | Prodrug (%) remaining, Rat Plasma ([1]; 2 h): 0.0% | Prodrug (%) remaining, Rat Plasma ([1]; 4 h): 0.0% | Prodrug (%) remaining, Human Plasma ([2]; 0 h): 100.0% | Prodrug (%) remaining, Human Plasma ([2]; 10 min): 96.4% | Prodrug (%) remaining, Human Plasma ([2]; 0.5 h): 85.0% | Prodrug (%) remaining, Human Plasma ([2]; 1 h): 72.4% | Prodrug (%) remaining, Human Plasma ([2]; 2 h): 51.6% | Prodrug (%) remaining, Human Plasma ([2]; 4 h): 25.5%

COc1ccc([C@@]23CCC(OC(=O)CCC(C)C)=C[C@@H]2N(C)CC3)cc1OC [Compound 399, (3aS,7aS)-3a-(3,4-dimethoxyphenyl)-1-methyl-2,3,3a,4,5,7a-hexahydro-1H-indol-6-yl4-methylpentanoate]
Prodrug (%) remaining, Rat Plasma ([1]; 0 h): 100.0% | Prodrug (%) remaining, Rat Plasma ([1]; 10 min): 0.0% | Prodrug (%) remaining, Rat Plasma ([1]; 0.5 h): 0.0% | Prodrug (%) remaining, Rat Plasma ([1]; 1 h): 0.0% | Prodrug (%) remaining, Rat Plasma ([1]; 2 h): 0.0% | Prodrug (%) remaining, Rat Plasma ([1]; 4 h): 0.0% | Prodrug (%) remaining, Human Plasma ([2]; 0 h): 100.0% | Prodrug (%) remaining, Human Plasma ([2]; 10 min): 5.6% | Prodrug (%) remaining, Human Plasma ([2]; 0.5 h): 1.1% | Prodrug (%) remaining, Human Plasma ([2]; 1 h): 0.5% | Prodrug (%) remaining, Human Plasma ([2]; 2 h): 0.3% | Prodrug (%) remaining, Human Plasma ([2]; 4 h): 0.2%

CCCCCC(C)C(=O)OC1=C[C@@H]2N(C)CC[C@]2(c2ccc(OC)c(OC)c2)CC1 (stereo partly drawn) [Compound 400, (3aS,7aS)-3a-(3,4-dimethoxyphenyl)-1-methyl-2,3,3a,4,5,7a-hexahydro-1H-indol-6-yl2-methylheptanoate]
Prodrug (%) remaining, Rat Plasma ([1]; 0 h): 100.0% | Prodrug (%) remaining, Rat Plasma ([1]; 10 min): 12.6% | Prodrug (%) remaining, Rat Plasma ([1]; 0.5 h): 0.6% | Prodrug (%) remaining, Rat Plasma ([1]; 1 h): 0.1% | Prodrug (%) remaining, Rat Plasma ([1]; 2 h): 0.1% | Prodrug (%) remaining, Rat Plasma ([1]; 4 h): 0.0% | Prodrug (%) remaining, Human Plasma ([2]; 0 h): 100.0% | Prodrug (%) remaining, Human Plasma ([2]; 10 min): 34.7% | Prodrug (%) remaining, Human Plasma ([2]; 0.5 h): 11.6% | Prodrug (%) remaining, Human Plasma ([2]; 1 h): 5.2% | Prodrug (%) remaining, Human Plasma ([2]; 2 h): 2.3% | Prodrug (%) remaining, Human Plasma ([2]; 4 h): 1.9%

CCCCC(CC)C(=O)OC1=C[C@@H]2N(C)CC[C@]2(c2ccc(OC)c(OC)c2)CC1 (stereo partly drawn) [Compound 401, (3aS,7aS)-3a-(3,4-dimethoxyphenyl)-1-methyl-2,3,3a,4,5,7a-hexahydro-1H-indol-6-yl2-ethylhexanoate]
Prodrug (%) remaining, Rat Plasma ([1]; 0 h): 100.0% | Prodrug (%) remaining, Rat Plasma ([1]; 10 min): 84.5% | Prodrug (%) remaining, Rat Plasma ([1]; 0.5 h): 55.8% | Prodrug (%) remaining, Rat Plasma ([1]; 1 h): 33.8% | Prodrug (%) remaining, Rat Plasma ([1]; 2 h): 16.3% | Prodrug (%) remaining, Rat Plasma ([1]; 4 h): 3.3% | Prodrug (%) remaining, Human Plasma ([2]; 0 h): 100.0% | Prodrug (%) remaining, Human Plasma ([2]; 10 min): 95.9% | Prodrug (%) remaining, Human Plasma ([2]; 0.5 h): >99% | Prodrug (%) remaining, Human Plasma ([2]; 1 h): 96.6% | Prodrug (%) remaining, Human Plasma ([2]; 2 h): 94.4% | Prodrug (%) remaining, Human Plasma ([2]; 4 h): 93.4%
